What was measured:
in vitro = conditions: human, uninfected MT-4 cells, CC50 (nM), same protocol as Test A, CellTiter-Glo
Procedure, shortened: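 Cytoprotection read-out: CellTiter-Glo chemiluminescence after 5 days at 37 °C of HIV-IIIb-infected MT-4 cells (m.o.i. 0.003) with compound in 10-point 3-fold dilutions, quadruplicate, 10% FBS. Cytotoxicity (CC50) measured identically without virus.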

HIV-IIIb = experiment: Test A: Antiviral assay in MT4 cells; format: cell-based, HIV-1; conditions: MT-4 cells infected with HIV-IIIb, 5 days, CellTiter-Glo; for inhibition at 2 µM: Human immunodeficiency virus 1, IIIB, MT4, 120 h, read-out: % inhibition at 2 μM, percent inhibition of virus-induced cell killing, from dose response curve at 2 uM drug

Compound: CCOC(=O)N1CCCC1C(=O)N[C@@H](Cc1cc(F)cc(F)c1)c1ncccc1-c1ccc(F)c(C(N)=O)c1 (stereo partly drawn) [Example 128, ethyl 2-((S)-1-(3-(3-carbamoyl-4-fluorophenyl)pyridin-2-yl)-2-(3,5-difluorophenyl)ethylcarbamoyl)pyrrolidine-1-carboxylate]
- CC50 at 5 days (in vitro): 23500 nM
- inhibition at 2 µM (HIV-IIIb): 7%

Compound: CCCCNS(=O)(=O)c1ccc(-c2cccnc2[C@H](Cc2cc(F)cc(F)c2)NC(=O)Cn2nc(C(F)F)c3c2C(F)(F)C2CC32)cc1 (stereo partly drawn) [Example 393, (S)—N-(1-(3-(4-(N-butylsulfamoyl)phenyl)-pyridin-2-yl)-2-(3,5-difluorophenyl)ethyl)-2-(3-(difluoromethyl)-5,6-dihydro-4,5-(methano)-6,6-difluoro-cyclopenta[c]pyrazol-1(4H)-yl)acetamide]
- CC50 at 5 days (in vitro): 26100 nM
- inhibition at 2 µM (HIV-IIIb): 54%

Compound: NC(=O)c1cc(-c2cccnc2[C@H](Cc2cc(F)cc(F)c2)NC(=O)[C@@H]2CCCN2)ccc1F [Example 175, (S)—N—((S)-1-(3-(3-carbamoyl-4-fluorophenyl)pyridin-2-yl)-2-(3,5-difluorophenyl)ethyl)pyrrolidine-2-carboxamide]
- CC50 at 5 days (in vitro): > 53000 nM
- inhibition at 2 µM (HIV-IIIb): 1%

Compound: Cc1cc2ncn(CC(=O)NC(Cc3cc(F)cc(F)c3)c3nccnc3-c3ccc(Cl)cc3)c2cc1C (centres unmarked) [Example 475, N-(1-(3-(4-chlorophenyl)pyrazin-2-yl)-2-(3,5-difluorophenyl)ethyl)-2-(5,6-dimethyl-1H-benzo[d]imidazol-1-yl)acetamide]
- CC50 at 5 days (in vitro): 20400 nM
- inhibition at 2 µM (HIV-IIIb): 23%

Compound: CN(C)C(C(=O)N[C@@H](Cc1cc(F)cc(F)c1)c1ncccc1-c1ccc(F)c(C(N)=O)c1)c1ccc(F)cc1 (single isomer, unassigned) [Example 503]
- CC50 at 5 days (in vitro): 40400 nM
- % inhibition at 2 μM (HIV-IIIb; percent inhibition of virus-induced cell killing, from dose response curve at 2 uM drug): 3%

Compound: Cc1nn(CC(=O)N[C@@H](Cc2cc(F)cc(F)c2)c2ncccc2-c2cccc(C(N)=O)c2)c2cc(O)ccc12 [Example 306C, (S)-3-(2-(2-(3,5-difluorophenyl)-1-(2-(6-hydroxy-3-methyl-1H-indazol-1-yl)acetamido)ethyl)pyridin-3-yl)benzamide]
- CC50 at 5 days (in vitro): 41600 nM
- inhibition at 2 µM (HIV-IIIb): 10%

Compound: NC(=O)c1cc(-c2cccnc2[C@H](Cc2cccc(F)c2)NC(=O)Cn2nc(C(F)(F)F)c3c2CCSC3)ccc1F [Example 228B, (S)-2-fluoro-5-(2-(2-(3-fluorophenyl)-1-(2-(3-(trifluoromethyl)-6,7-dihydrothiopyrano[4,3-c]pyrazol-1(4H)-yl)acetamido)ethyl)pyridin-3-yl)benzamide]
- CC50 at 5 days (in vitro): 23400 nM
- inhibition at 2 µM (HIV-IIIb): 51%

Compound: Cc1ccccc1-c1cccnc1C(Cc1cc(F)cc(F)c1)NC(=O)Cc1c[nH]c2ccc(O)cc12 (centres unmarked) [Example 3, N-(2-(3,5-difluorophenyl)-1-(3-o-tolylpyridin-2-yl)ethyl)-2-(5-hydroxy-1H-indol-3-yl)acetamide]
- CC50 at 5 days (in vitro): 21900 nM
- inhibition at 2 µM (HIV-IIIb): 40%

Compound: Cc1ccccc1-c1cccnc1[C@@H](Cc1ccccc1)NC(=O)Cc1c[nH]c2ccc(O)cc12 [Example 15, (R)-2-(5-hydroxy-1H-indol-3-yl)-N-(2-phenyl-1-(3-o-tolylpyridin-2-yl)ethyl)acetamide]
- CC50 at 5 days (in vitro): 28200 nM
- inhibition at 2 µM (HIV-IIIb): 0%

Compound: CCc1c(C#CC(C)(C)C)c(C(F)(F)F)nn1CC(=O)N[C@@H](Cc1cc(F)cc(F)c1)c1ncccc1-c1ccc(F)c(C(N)=O)c1 [Example 280, (S)-5-(2-(2-(3,5-difluorophenyl)-1-(2-(4-(3,3-dimethylbut-1-ynyl)-5-ethyl-3-(trifluoromethyl)-1H-pyrazol-1-yl)acetamido)ethyl)pyridin-3-yl)-2-fluorobenzamide]
- CC50 at 5 days (in vitro): 4180 nM
- inhibition at 2 µM (HIV-IIIb): 0%

Compound: CC(C)(C)OC(=O)N1CCc2c(C(F)(F)F)nn(CC(=O)N[C@@H](Cc3cc(F)cc(F)c3)c3ncccc3-c3ccc(F)c(C(N)=O)c3)c2C1 [Example 378, (S)-tert-butyl 1-(2-(1-(3-(3-carbamoyl-4-fluorophenyl)pyridin-2-yl)-2-(3,5-difluorophenyl)ethylamino)-2-oxoethyl)-3-(trifluoromethyl)-4,5-dihydro-1H-pyrazolo[3,4-c]pyridine-6(7H)-carboxylate]
- CC50 at 5 days (in vitro): 17100 nM
- inhibition at 2 µM (HIV-IIIb): 5%

Compound: NC(=O)c1cc(-c2cccnc2[C@H](Cc2cc(F)cc(F)c2)NC(=O)Cc2c[nH]c3ccc(O)cc23)ccc1F [Example 41, (S)-5-(2-(2-(3,5-difluorophenyl)-1-(2-(5-hydroxy-1H-indol-3-yl)acetamido)ethyl)pyridin-3-yl)-2-fluorobenzamide]
- CC50 at 5 days (in vitro): > 53000 nM
- inhibition at 2 µM (HIV-IIIb): 97%

Compound: O=C(Cc1c[nH]c2ccc(F)cc12)N[C@H](Cc1cc(F)cc(F)c1)c1ncncc1-c1ccc(Cl)cc1 [Example 293, (R)—N-(1-(5-(4-chlorophenyl)pyrimidin-4-yl)-2-(3,5-difluorophenyl)ethyl)-2-(5-fluoro-1H-indol-3-yl)acetamide]
- CC50 at 5 days (in vitro): 11200 nM
- inhibition at 2 µM (HIV-IIIb): 44%

Compound: CC(C)c1cc(C(=O)NC2CC2)n(CC(=O)N[C@@H](Cc2cc(F)cc(F)c2)c2ncccc2-c2ccc(F)c(C(N)=O)c2)n1 [Example 520, (S)-1-(2-(1-(3-(3-carbamoyl-4-fluorophenyl)pyridin-2-yl)-2-(3,5-difluorophenyl)ethylamino)-2-oxoethyl)-N-cyclopropyl-3-isopropyl-1H-pyrazole-5-carboxamide]
- CC50 at 5 days (in vitro): > 53200 nM
- inhibition at 2 µM (HIV-IIIb): 30%

Compound: COc1ccc(CC(=O)N[C@@H](Cc2cc(F)cc(F)c2)c2ncccc2-c2cccc(C(N)=O)c2)c(OC)c1 [Example 499, (S)-3-(2-(2-(3,5-difluorophenyl)-1-(2-(2,4-dimethoxyphenyl)acetamido)ethyl)pyridin-3-yl)benzamide]
- CC50 at 5 days (in vitro): > 53000 nM
- inhibition at 2 µM (HIV-IIIb): 22%

Compound: O=C(Cn1nc(C(F)F)c2c1C(F)(F)CCC2(F)F)N[C@@H](Cc1cc(F)cc(F)c1)c1ncccc1-c1ccc2c(c1)CNC2=O [Example 508D, (S)-2-(3-(difluoromethyl)-4,4,7,7-tetrafluoro-4,5,6,7-tetrahydro-1H-indazol-1-yl)-N-(2-(3,5-difluorophenyl)-1-(3-(1-oxoisoindolin-5-yl)pyridin-2-yl)ethyl)acetamide]
- CC50 at 5 days (in vitro): 5130 nM
- inhibition at 2 µM (HIV-IIIb): 96%

Compound: NC(=O)c1cc(-c2cccnc2[C@H](Cc2cc(F)cc(F)c2)NC(=O)Cn2nc3c(c2C(F)F)C2CC2C3=O)ccc1F (stereo partly drawn) [Example 220B, 5-(2-((1S)-1-(2-(3-(difluoromethyl)-5-oxo-3b,4,4a,5-tetrahydro-2H-cyclopropa[3,4]cyclopenta[1,2-c]pyrazol-2-yl)acetamido)-2-(3,5-difluorophenyl)ethyl)pyridin-3-yl)-2-fluorobenzamide]
- CC50 at 5 days (in vitro): 39200 nM
- inhibition at 2 µM (HIV-IIIb): 70%

Compound: NC(=O)c1cc(-c2cccnc2[C@H](Cc2cc(F)cc(F)c2)NC(=O)Cn2cc(C3=CCCCC3)c(C(F)(F)F)n2)ccc1F [Example 460, (S)-5-(2-(1-(2-(4-cyclohexenyl-3-(trifluoromethyl)-1H-pyrazol-1-yl)acetamido)-2-(3,5-difluorophenyl)ethyl)pyridin-3-yl)-2-fluorobenzamide]
- CC50 at 5 days (in vitro): 8970 nM
- inhibition at 2 µM (HIV-IIIb): 0%

Compound: NC(=O)c1cc(-c2cccnc2[C@H](Cc2cc(F)cc(F)c2)NC(=O)Cn2cc(CO)c(C(F)(F)F)n2)ccc1F [Example 292, (S)-5-(2-(2-(3,5-difluorophenyl)-1-(2-(4-(hydroxymethyl)-3-(trifluoromethyl)-1H-pyrazol-1-yl)acetamido)ethyl)pyridin-3-yl)-2-fluorobenzamide]
- CC50 at 5 days (in vitro): > 53200 nM
- inhibition at 2 µM (HIV-IIIb): 1%

Compound: CC(C)(C)c1cc(C(F)(F)F)nn1CC(=O)N[C@@H](Cc1cc(F)cc(F)c1)c1ncccc1-c1ccc(F)c(C(N)=O)c1 [Example 244B, (S)-5-(2-(1-(2-(5-(tert-butyl)-3-(trifluoromethyl)-1H-pyrazol-1-yl)acetamido)-2-(3,5-difluorophenyl)ethyl)pyridin-3-yl)-2-fluorobenzamide]
- CC50 at 5 days (in vitro): 16400 nM
- inhibition at 2 µM (HIV-IIIb): 0%

Compound: NC(=O)c1cc(-c2cccnc2[C@H](Cc2cc(F)cc(F)c2)NC(=O)Cn2ccc3cc(F)c(Cl)cc32)ccc1F [Example 568, (S)-5-(2-(1-(2-(6-chloro-5-fluoro-1H-indol-1-yl)acetamido)-2-(3,5-difluorophenyl)ethyl)pyridin-3-yl)-2-fluorobenzamide]
- CC50 at 5 days (in vitro): 11400 nM
- inhibition at 2 µM (HIV-IIIb): 42%

Compound: NC(=O)c1cc(-c2cccnc2[C@H](Cc2cc(F)cc(F)c2)NC(=O)Cn2nc(C(F)(F)F)c3c2CNC3)ccc1F [Example 251, (S)-5-(2-(2-(3,5-difluorophenyl)-1-(2-(3-(trifluoromethyl)-5,6-dihydropyrrolo[3,4-c]pyrazol-1(4H)-yl)acetamido)ethyl)pyridin-3-yl)-2-fluorobenzamide]
- CC50 at 5 days (in vitro): > 53200 nM
- inhibition at 2 µM (HIV-IIIb): 1%

Compound: NC(=O)c1cc(-c2cccnc2[C@H](Cc2cc(F)cc(F)c2)NC(=O)Cn2nc(C(F)(F)F)c3c2CCC(F)(F)C3)ccc1F [Example 150, (S)-5-(2-(1-(2-(5,5-difluoro-3-(trifluoromethyl)-4,5,6,7-tetrahydro-1H-indazol-1-yl)acetamido)-2-(3,5-difluorophenyl)ethyl)pyridin-3-yl)-2-fluorobenzamide]
- CC50 at 5 days (in vitro): 18400 nM
- inhibition at 2 µM (HIV-IIIb): 15%

Compound: CCCCC(C(=O)N[C@@H](Cc1cc(F)cc(F)c1)c1ncccc1-c1ccc(F)c(C(N)=O)c1)n1ccc(C(F)(F)F)n1 (single isomer, unassigned) [Example 487C]
- CC50 at 5 days (in vitro): 9710 nM
- inhibition at 2 µM (HIV-IIIb): 10%

Compound: Cc1[nH]c2ccc(F)cc2c1CC(=O)N[C@@H](Cc1cc(F)cc(F)c1)c1ncccc1-c1cccc(C(N)=O)c1 [Example 517E, (S)-3-(2-(2-(3,5-difluorophenyl)-1-(2-(5-fluoro-2-methyl-1H-indol-3-yl)acetamido)ethyl)pyridin-3-yl)benzamide]
- CC50 at 5 days (in vitro): 19100 nM
- inhibition at 2 µM (HIV-IIIb): 87%

From US9540343B2 (Gilead Sciences, Inc., priority 2011, dated 2017)
